{
  "source": "patent US4652581A",
  "about": "“Tetrahydroindole derivative as medicament for cerebral apoplexy” (Grelan Pharmaceutical Co., Ltd., priority 1983, dated 1987)",
  "key": {"[1]": {"experiment": "Acute toxicity (LD50 in mice)", "settings": "mouse, in vivo"}, "[2]": {"test_system": "hemorrhagic infarction (rat cerebral infarction model)", "experiment": "Inhibition of hemorrhagic infarction in cerebral infarction model, ISI injection (Test Example 1A)", "format": "in vivo, Sprague Dowley male rats", "settings": "intraperitoneal", "experimental": "(§1) (A) A cerebral infarction model was constructed by the following procedure. The bilateral common carotid arteries of Sprague Dowley male rats (body weights 300 to 350 g) in which one of the vertebral arteries was occluded by electrocauterization in accordance with the method of W. Pulsinelli et al (Stroke 10, 267, 1979) were uniformly occluded and made repatent, using clamps, at an interval of 1 hour for the first cycle and thereafter at 30-minute intervals for a total of 4 cycles.\nAfter the final establishment of repatency in this test model and on the second day and onwards, 1 ml/100 g body weight of Glyceol ® Injection [a preparation containing 10 weight % of glycerol, the trademark of Chugai Pharmaceutical Co., Ltd., Japan] was intraperitoneally administered twice daily. The test drug ISI was dissolved in Glyceol ® Injection to a concentration of 0.08 weight % and administered in the same manner as Glyceol ® Injection.\nIn a disease model such as the one used in this experiment, death of animals occurs in many cases as an infarction leads to cerebral edema which compresses the brain stem. Therefore, for the purpose of preventing death due to this cause and ensuring a smooth performance of the experiment, the animals were treated with Glyceol ® Injection which has a relieving effect on cerebral edema.\nThe isolated brains were fixed in 10% formalin. […]"}, "[3]": {"test_system": "cerebral apoplexy (stroke-prone spontaneously hypertensive rats)", "experiment": "Effect against cerebral apoplexy in NaCl-loaded stroke-prone spontaneously hypertensive rats (Test Example 2)", "format": "in vivo", "excerpt": "Stroke-prone spontaneously hypertensive rats [K. Okamoto et al., Circulation Res. suppl. 34 & 35, 143 (1974)]of 10 weeks aged were fed, in conventional manner, with a 1 weight % aqueous solution of sodium chloride as drinking water [H. Ikeda et al., Europ. J. Pharmacol. 53, 173 (1979)]being employed.\nAnimals were subjected to periodical observation, three times a day, until the symptom of cerebral apoplexy was manifested in all the animals of the control group. The difference between the control group and the test group in the ranking of the symtoms of cerebral apoplexy manifested was subjected to rank sum test.\nIn the test group, each of the animals was orally treated every day with ISI dissolved in 1% gum-arabica solution so that the concentration may become 0.06 weight % at a dose of 0.5 ml/100 g body weight twice a day, starting with the sodium chloride loading. In the control group, each of the animals was treated with 1% gum-arabica solution at a dose of 0.5 ml/100 g body weight in a manner similar to that in the test group.\nThe animals in which the symptom of apoplexy was manifested, after being anesthetized, was treated with intravenous injection of 1% Evans Blue (dosage: 1 ml/kg). After sacrifice by bloodletting, hemorrhage and extravascular extravasation of the dye in the brain and the spinal cord was observed.\nWith paralysis of the limbs, stereotyped behaviour, an extreme loss of\nthose animals were counted as those suffering from C.A.: Excitement,\nHyperirritability, Depression, Epileptic symptom, Hemiplegia, Sudden"}, "[4]": {"test_system": "hemorrhagic infarction (rat cerebral infarction model)", "experiment": "Inhibition of hemorrhagic infarction in cerebral infarction model, ISI orally administered (Test Example 1B)", "format": "in vivo, Sprague Dowley male rats", "settings": "oral, twice daily", "experimental": "as §1\nThe isolated brains were fixed in 10% formalin. For the assessment of hemorrhagic infarction, paraffin-embedded specimens prepared from three different sections passing through the mid-point between the anterior portion of the frontal lobe and the optic chiasm, the optic chiasm and the posterior portion of the mamillary body were used after H.E. stain.\n(B) In the system using the above-mentioned cerebral infarction model, 0.25 ml/100 g body weight of suspension of the test drug ISI in 5% sodium alginate was orally administrated (dose of ISI: 30 mg/kg). To control animals, 0.25 ml/100 g body weight of 5% sodium alginate was orally administered. The administration schedule was twice daily for both groups.\nThe brains submitted to the study were subjected to the same treatment as above, and assessments were made on paraffin-embedded specimens."}},
  "note": "Where two headings read alike, the source gives them in different places.",
  "data": [
    {"smiles": "CC(C)N1CC(O)C2=CC(=NNC(N)=O)C(=O)C=C21", "note": "(centres unmarked) [ISI, 1-isopropyl-3-hydroxy-5-semicarbazono-6-oxo-2,3,5,6-tetrahydroindole]", "values": [
      {"measurement": "LD50", "setting": "[1]; intravenous, read-out: Acute toxicity LD50, intravenous", "result": 350, "unit": "mg/kg"},
      {"measurement": "LD50", "setting": "[1]; oral, read-out: Acute toxicity LD50, oral", "result": "≥ 10000", "unit": "mg/kg"},
      {"measurement": "Number of cases of hemorrhagic infarction", "setting": "[2]; 0.08% ISI in Glyceol injection, 1 ml/100 g, twice daily, up to 7 days, control (Glyceol injection) 6/20", "result": "1/19"},
      {"measurement": "inhibitory effect on hemorrhagic infarction (significance versus control)", "setting": "[2]; ISI in Glyceol injection vs control group", "result": "inhibitory effect on hemorrhagic infarction was obtained in the ISI group at the significance level of 5%"},
      {"measurement": "Number of animals suffering from C.A., Total", "setting": "[3]; ISI 3.0 mg/kg, oral twice a day, total, days 20-42 after NaCl loading, control 10/10", "result": "5/10"},
      {"measurement": "Number of animals suffering from C.A.", "setting": "[3]; ISI 3.0 mg/kg, 20 days after NaCl loading, control 0", "result": 1},
      {"measurement": "Number of animals suffering from C.A.", "setting": "[3]; ISI 3.0 mg/kg, 21 days after NaCl loading, control 1", "result": 0},
      {"measurement": "Number of animals suffering from C.A.", "setting": "[3]; ISI 3.0 mg/kg, 23 days after NaCl loading, control 1", "result": 0},
      {"measurement": "Number of animals suffering from C.A.", "setting": "[3]; ISI 3.0 mg/kg, 26 days after NaCl loading, control 1", "result": 0},
      {"measurement": "Number of animals suffering from C.A.", "setting": "[3]; ISI 3.0 mg/kg, 32 days after NaCl loading, control 1", "result": 0},
      {"measurement": "Number of animals suffering from C.A.", "setting": "[3]; ISI 3.0 mg/kg, 33 days after NaCl loading, control 1", "result": 1},
      {"measurement": "Number of animals suffering from C.A.", "setting": "[3]; ISI 3.0 mg/kg, 34 days after NaCl loading, control 1", "result": 0},
      {"measurement": "Number of animals suffering from C.A.", "setting": "[3]; ISI 3.0 mg/kg, 37 days after NaCl loading, control 0", "result": 2},
      {"measurement": "Number of animals suffering from C.A.", "setting": "[3]; ISI 3.0 mg/kg, 39 days after NaCl loading, control 1", "result": 0},
      {"measurement": "Number of animals suffering from C.A.", "setting": "[3]; ISI 3.0 mg/kg, 40 days after NaCl loading, control 1", "result": 0},
      {"measurement": "Number of animals suffering from C.A.", "setting": "[3]; ISI 3.0 mg/kg, 41 days after NaCl loading, control 0", "result": 1},
      {"measurement": "Number of animals suffering from C.A.", "setting": "[3]; ISI 3.0 mg/kg, 42 days after NaCl loading, control 2", "result": 0},
      {"measurement": "effect of ISI against cerebral apoplexy (significance versus control)", "setting": "[3]; oral ISI twice a day, Mann-Whitrey's U-test", "result": 5, "unit": "% significant difference"},
      {"measurement": "Number of cases of hemorrhagic infarction", "setting": "[4]; 30 mg/kg in 5% sodium alginate, control (sodium alginate) 18/43", "result": "9/41"},
      {"measurement": "inhibitory effect on cerebral infarction (significance versus control)", "setting": "[4]; 30 mg/kg, vs control group", "result": "inhibitory effect on cerebral infarction was obtained in the ISI group at the significance level of 5%"}
    ]}
  ]
}
